From patent US11447466B2, “Substituted indole compounds useful as inhibitors of TLR7/8/9” (BRISTOL-MYERS SQUIBB COMPANY, priority 2017, dated 2022)

Legend:
Format in all cases: cell-based
human TLR9 = molecular target: T1, human TLR9 (Homo sapiens, UniProt Q9NR96); test: TLR9 inhibition reporter assay (HEK-Blue SEAP reporter, ODN2006 stimulation); settings: HEK-Blue cells overexpressing human TLR9, SEAP reporter, ODN2006 5 nM, 22 hour incubation
T1 construct: host or cells: HEK-Blue cells
T1 sequence (Q9NR96 26-1032): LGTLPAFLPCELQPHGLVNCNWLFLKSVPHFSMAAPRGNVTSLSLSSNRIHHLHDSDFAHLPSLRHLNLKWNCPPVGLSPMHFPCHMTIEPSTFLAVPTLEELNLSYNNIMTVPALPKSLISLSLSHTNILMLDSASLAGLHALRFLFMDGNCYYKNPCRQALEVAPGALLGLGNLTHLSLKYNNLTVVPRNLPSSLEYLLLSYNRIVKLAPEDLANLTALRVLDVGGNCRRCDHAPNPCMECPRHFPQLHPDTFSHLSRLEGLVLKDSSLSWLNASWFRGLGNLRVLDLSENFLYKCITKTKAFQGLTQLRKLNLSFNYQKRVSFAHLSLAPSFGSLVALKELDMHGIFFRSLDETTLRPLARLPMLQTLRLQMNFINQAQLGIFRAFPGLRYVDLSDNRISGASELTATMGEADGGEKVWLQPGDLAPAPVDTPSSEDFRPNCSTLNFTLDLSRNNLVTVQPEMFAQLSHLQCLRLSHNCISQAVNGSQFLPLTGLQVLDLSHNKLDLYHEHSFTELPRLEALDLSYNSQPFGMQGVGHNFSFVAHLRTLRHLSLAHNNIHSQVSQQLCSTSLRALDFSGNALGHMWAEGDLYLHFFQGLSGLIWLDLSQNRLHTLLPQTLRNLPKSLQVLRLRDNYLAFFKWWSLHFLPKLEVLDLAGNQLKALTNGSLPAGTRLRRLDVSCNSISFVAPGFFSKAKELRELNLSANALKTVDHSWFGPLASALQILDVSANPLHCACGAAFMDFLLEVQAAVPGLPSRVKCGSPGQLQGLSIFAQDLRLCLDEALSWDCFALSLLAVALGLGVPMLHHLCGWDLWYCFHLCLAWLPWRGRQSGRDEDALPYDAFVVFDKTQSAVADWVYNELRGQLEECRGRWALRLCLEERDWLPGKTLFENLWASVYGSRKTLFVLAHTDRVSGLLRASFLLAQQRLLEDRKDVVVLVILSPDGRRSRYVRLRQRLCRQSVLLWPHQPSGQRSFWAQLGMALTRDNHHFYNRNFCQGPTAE
Procedure: (§1) TLR7/8/9 Inhibition Reporter Assays
(§2) HEK-Blue™-cells (Invivogen) overexpressing human TLR7, TLR8 or TLR9 receptors were used for screening inhibitors of these receptors using an inducible SEAP (secreted embryonic alkaline phosphatase) reporter gene under the control of the IFN-β minimal promoter fused to five NF-κB and AP-1-binding sites. Briefly, cells are seeded into Greiner 384 well plates (15000 cells per well for TLR7, 20,000 for TLR8 and 25,000 for TLR9) and then treated with test compounds in DMSO to yield a final dose response concentration range of 0.05 nM-50 μM. After a 30 minute compound pre-treatment at room temperature, the cells are then stimulated with a TLR7 ligand (gardiquimod at a final concentration of 7.5 μM), TLR8 ligand (R848 at a final concentration of 15.9 μM) or TLR9 ligand (ODN2006 at a final concentration of 5 nM) to activate NF-κB and AP-1 which induce the production of SEAP. After a 22 hour incubation at 37° C., 5% CO2, SEAP levels are determined with the addition of HEK-Blue™ Detection reagent (Invivogen), a cell culture medium that allows for detection of SEAP, according to manufacturer's specifications. The percent inhibition is determined as the % reduction in the HEK-Blue signal present in wells treated with agonist plus DMSO alone compared to wells treated with a known inhibitor.

human TLR7 = molecular target: T2, human TLR7 (Homo sapiens, UniProt Q9NYK1); test: TLR7 inhibition reporter assay (HEK-Blue SEAP reporter, gardiquimod stimulation); settings: HEK-Blue cells overexpressing human TLR7, SEAP reporter, gardiquimod 7.5 μM, 22 hour incubation
T2 construct: host or cells: HEK-Blue cells
T2 sequence (Q9NYK1 27-1049): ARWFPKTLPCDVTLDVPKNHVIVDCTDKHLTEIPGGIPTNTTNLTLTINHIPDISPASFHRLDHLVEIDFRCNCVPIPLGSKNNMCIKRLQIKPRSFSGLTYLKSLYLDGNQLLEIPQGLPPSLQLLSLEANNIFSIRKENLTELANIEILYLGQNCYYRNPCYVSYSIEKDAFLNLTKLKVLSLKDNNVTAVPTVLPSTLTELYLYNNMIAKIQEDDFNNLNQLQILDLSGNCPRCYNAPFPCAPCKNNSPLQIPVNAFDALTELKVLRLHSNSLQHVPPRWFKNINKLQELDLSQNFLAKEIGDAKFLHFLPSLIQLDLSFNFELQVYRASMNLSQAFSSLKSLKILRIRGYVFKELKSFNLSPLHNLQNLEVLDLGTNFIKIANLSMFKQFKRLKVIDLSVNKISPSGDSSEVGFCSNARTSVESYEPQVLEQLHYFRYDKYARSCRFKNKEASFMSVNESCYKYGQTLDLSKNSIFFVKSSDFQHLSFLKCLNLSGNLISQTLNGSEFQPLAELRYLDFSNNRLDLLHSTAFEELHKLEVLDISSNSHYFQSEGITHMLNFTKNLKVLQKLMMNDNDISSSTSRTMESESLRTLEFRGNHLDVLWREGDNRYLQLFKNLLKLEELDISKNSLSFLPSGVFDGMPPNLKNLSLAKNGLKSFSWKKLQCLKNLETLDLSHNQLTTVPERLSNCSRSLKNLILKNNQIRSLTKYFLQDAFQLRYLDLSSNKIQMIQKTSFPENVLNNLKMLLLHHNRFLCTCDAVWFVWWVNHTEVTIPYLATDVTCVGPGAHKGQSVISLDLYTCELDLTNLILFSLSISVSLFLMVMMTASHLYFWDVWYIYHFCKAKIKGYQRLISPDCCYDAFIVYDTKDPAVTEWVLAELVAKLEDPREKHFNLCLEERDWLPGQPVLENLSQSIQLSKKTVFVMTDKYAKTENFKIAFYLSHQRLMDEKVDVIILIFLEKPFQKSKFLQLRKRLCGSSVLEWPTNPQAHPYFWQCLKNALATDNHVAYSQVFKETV
Procedure: as §1, §2

human TLR8 = molecular target: T3, human TLR8 (Homo sapiens, UniProt Q9NR97); test: TLR8 inhibition reporter assay (HEK-Blue SEAP reporter, R848 stimulation); settings: HEK-Blue cells overexpressing human TLR8, SEAP reporter, R848 15.9 μM, 22 hour incubation
T3 construct: host or cells: HEK-Blue cells
T3 sequence (Q9NR97 27-1041): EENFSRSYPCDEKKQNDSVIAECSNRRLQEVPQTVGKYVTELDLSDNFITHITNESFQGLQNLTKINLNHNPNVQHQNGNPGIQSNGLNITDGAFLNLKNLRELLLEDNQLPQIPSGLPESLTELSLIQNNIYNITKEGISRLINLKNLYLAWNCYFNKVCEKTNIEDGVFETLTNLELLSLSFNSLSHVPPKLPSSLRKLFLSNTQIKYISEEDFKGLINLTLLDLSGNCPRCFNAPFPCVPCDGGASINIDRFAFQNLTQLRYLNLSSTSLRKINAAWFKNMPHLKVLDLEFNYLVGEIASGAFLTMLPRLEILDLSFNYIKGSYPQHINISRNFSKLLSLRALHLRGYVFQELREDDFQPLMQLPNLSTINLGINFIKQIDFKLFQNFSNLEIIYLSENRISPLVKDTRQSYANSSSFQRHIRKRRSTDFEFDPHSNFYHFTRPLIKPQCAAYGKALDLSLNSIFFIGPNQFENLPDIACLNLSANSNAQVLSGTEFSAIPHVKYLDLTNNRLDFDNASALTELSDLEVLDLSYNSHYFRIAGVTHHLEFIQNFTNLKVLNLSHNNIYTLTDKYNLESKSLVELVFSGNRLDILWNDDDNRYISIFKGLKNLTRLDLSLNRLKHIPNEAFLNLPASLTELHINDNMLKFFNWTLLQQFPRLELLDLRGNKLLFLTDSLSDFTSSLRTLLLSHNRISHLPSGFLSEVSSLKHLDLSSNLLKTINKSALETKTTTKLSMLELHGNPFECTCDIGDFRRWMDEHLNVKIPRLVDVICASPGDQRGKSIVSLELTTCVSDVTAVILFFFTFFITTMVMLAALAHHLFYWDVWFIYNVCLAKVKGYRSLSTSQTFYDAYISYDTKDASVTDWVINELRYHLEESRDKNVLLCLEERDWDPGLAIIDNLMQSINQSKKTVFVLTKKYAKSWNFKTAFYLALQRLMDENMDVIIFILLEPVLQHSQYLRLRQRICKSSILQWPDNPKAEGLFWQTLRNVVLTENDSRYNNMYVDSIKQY
Procedure: as §1, §2

Row | IC50 (human TLR9) [nM] | IC50 (human TLR7) [nM] | IC50 (human TLR8) [nM] | SMILES
1 | 621 | 27.5 | 15.4 | CC(C)c1c(-c2ccc(=O)n(C)c2)[nH]c2ccc(C3CCNCC3)cc12 [Example 1, 5-(3-isopropyl-5-(piperidin-4-yl)-1H-indol-2-yl)-1-methylpyridin-2(1H)-one]
2 | 4340 | 1.6 | 5.1 | Cc1cc(-c2[nH]c3ccc(C4CCNCC4)cc3c2C(C)C)cn(C)c1=O [Example 2, 5-(3-isopropyl-5-(piperidin-4-yl)-1H-indol-2-yl)-1,3-dimethylpyridin-2(1H)-one]
3 | 979 | 8.4 | 3.4 | Cc1cc(-c2[nH]c3ccc(C4CCNCC4)cc3c2C(C)C)c(C)n(C)c1=O [Example 3, 5-(3-isopropyl-5-(piperidin-4-yl)-1H-indol-2-yl)-1,3,6-trimethylpyridin-2(1H)-one]
4 | 756 | 82.8 | 38.4 | CC(C)c1c(-c2cn(C)c(=O)cn2)[nH]c2ccc(C3CCNCC3)cc12 [Example 4, 5-(3-isopropyl-5-(piperidin-4-yl)-1H-indol-2-yl)-1-methylpyrazin-2(1H)-one]
5 | 763 | 179 | 107 | CC(C)c1c(-c2ccc(=O)n(C)n2)[nH]c2ccc(C3CCNCC3)cc12 [Example 5, 6-(3-isopropyl-5-(piperidin-4-yl)-1H-indol-2-yl)-2-methylpyridazin-3(2H)-one]
6 | 580 | 12.8 | 13.3 | Cc1c(-c2[nH]c3ccc(C4CCNCC4)cc3c2C(C)C)ccc(=O)n1C [Example 6, 5-(3-isopropyl-5-(piperidin-4-yl)-1H-indol-2-yl)-1,6-dimethylpyridin-2(1H)-one]
7 | 957 | 72.7 | 43.5 | Cc1cc(=O)n(C)cc1-c1[nH]c2ccc(C3CCNCC3)cc2c1C(C)C [Example 8, 5-(3-isopropyl-5-(piperidin-4-yl)-1H-indol-2-yl)-1,4-dimethylpyridin-2(1H)-one]
8 | 879 | 50.8 | 11.5 | CC(C)c1c(-c2cc(N)c(=O)n(C)c2)[nH]c2ccc(C3CCNCC3)cc12 [Example 9, 3-amino-5-(3-isopropyl-5-(piperidin-4-yl)-1H-indol-2-yl)-1-methylpyridin-2(1H)-one]
9 | 1540 | 330 | 38.4 | Cc1cc(=O)n(C)nc1-c1[nH]c2ccc(C3CCNCC3)cc2c1C(C)C [Example 10, 6-(3-isopropyl-5-(piperidin-4-yl)-1H-indol-2-yl)-2,5-dimethylpyridazin-3(2H)-one]
10 | 4850 | 5.3 | 3.3 | Cc1cc(-c2[nH]c3ccc(C4CCNCC4)cc3c2C(C)C)nn(C)c1=O [Example 11, 6-(3-isopropyl-5-(piperidin-4-yl)-1H-indol-2-yl)-2,4-dimethylpyridazin-3(2H)-one]
11 | ≥ 50000 |  |  | CC(C)c1c(-c2cc(C(=O)N(C)C)c(=O)n(C)c2)[nH]c2ccc(C3CCNCC3)cc12 [Example 63, 5-(3-isopropyl-5-(piperidin-4-yl)-1H-indol-2-yl)-N,N,1-trimethyl-2-oxo-1,2-dihydropyridine-3-carboxamide]
12 | ≥ 50000 |  | 289 | Cc1cc(-c2[nH]c3ccc(C4CCN(CC(=O)NC[C@@H](C)O)CC4)cc3c2C(C)C)cn(C)c1=O [Example 125, (R)-2-(4-(2-(1,5-dimethyl-6-oxo-1,6-dihydropyridin-3-yl)-3-isopropyl-1H-indol-5-yl)piperidin-1-yl)-N-(2-hydroxypropyl)acetamide]
13 | ≥ 50000 |  | 631 | Cc1cc(-c2[nH]c3ccc(C4CCN(CC(=O)NC[C@H](C)O)CC4)cc3c2C(C)C)cn(C)c1=O [Example 126, (S)-2-(4-(2-(1,5-dimethyl-6-oxo-1,6-dihydropyridin-3-yl)-3-isopropyl-1H-indol-5-yl)piperidin-1-yl)-N-(2-hydroxypropyl)acetamide]
14 | 6610 |  | 983 | CCCN1CCC(c2ccc3[nH]c(-c4cc(N5CCCCC5)c(=O)n(C)c4)c(C(C)C)c3c2)CC1 [Example 173, 5-(3-isopropyl-5-(1-propylpiperidin-4-yl)-1H-indol-2-yl)-1-methyl-3-(piperidin-1-yl) pyridin-2(1H)-one]
